Measured values as given in patent US10800741B2 (ANCUREALL PHARMACEUTICAL (SHANGHAI) CO., LTD., priority 2017, dated 2020).

Tests used:
Format in all cases: cell-based, Human
H1581 (FGFR1 amp) = test: In vitro growth inhibition of H1581 tumor cells (MTT/CCK8); details: Homo sapiens, NCI-H1581; in vitro growth inhibition (or induction of apoptosis), cells cultured 3 to 5 days, MTT (CCK8); read-out: IC50 H1581 (FGFR1 amp)
KCL-22 (BCR-ABL) = test: In vitro growth inhibition of KCL-22 tumor cells (MTT/CCK8); details: Homo sapiens, KCL-22; in vitro growth inhibition (or induction of apoptosis), cells cultured 3 to 5 days, MTT (CCK8); read-out: IC50 KCL-22 (BCR-ABL)
Hep3B2 (FGFR3/4+++) = test: In vitro growth inhibition of Hep3B2 tumor cells (MTT/CCK8); details: Homo sapiens, Hep3B; in vitro growth inhibition (or induction of apoptosis), cells cultured 3 to 5 days, MTT (CCK8); read-out: IC50 Hep3B2 (FGFR3/4+++)
MOLM-13 (FLT3-ITD) = test: In vitro growth inhibition of MOLM-13 tumor cells (MTT/CCK8); details: Homo sapiens, MOLM-13; in vitro growth inhibition (or induction of apoptosis), cells cultured 3 to 5 days, MTT (CCK8); read-out: IC50 MOLM-13 (FLT3-ITD)
H1703 (PDGFRa amp) = test: In vitro growth inhibition of H1703 tumor cells (MTT/CCK8); details: Homo sapiens, NCI-H1703; in vitro growth inhibition (or induction of apoptosis), cells cultured 3 to 5 days, MTT (CCK8); read-out: IC50 H1703 (PDGFRa amp)
KATO III (FGFR2 amp) = test: In vitro growth inhibition of KATO III tumor cells (MTT/CCK8); details: Homo sapiens, KATO III; in vitro growth inhibition (or induction of apoptosis), cells cultured 3 to 5 days, MTT (CCK8); read-out: IC50 KATO III (FGFR2 amp)
Karpas 299 (NPM-ALK) = test: In vitro growth inhibition of Karpas 299 tumor cells (MTT/CCK8); details: Homo sapiens, KARPAS-299; in vitro growth inhibition (or induction of apoptosis), cells cultured 3 to 5 days, MTT (CCK8); read-out: IC50 Karpas 299 (NPM-ALK)
Kasumi-1 (KIT N822K) = test: In vitro growth inhibition of Kasumi-1 tumor cells (MTT/CCK8); details: Homo sapiens, Kasumi 1; in vitro growth inhibition (or induction of apoptosis), cells cultured 3 to 5 days, MTT (CCK8); read-out: IC50 Kasumi-1 (KIT N822K)

SMILES | IC50 (H1581 (FGFR1 amp)) | IC50 (KCL-22 (BCR-ABL)) | IC50 (Hep3B2 (FGFR3/4+++)) | IC50 (MOLM-13 (FLT3-ITD)) | IC50 (H1703 (PDGFRa amp)) | IC50 (KATO III (FGFR2 amp)) | IC50 (Karpas 299 (NPM-ALK)) | IC50 (Kasumi-1 (KIT N822K))
COCCOc1cc2nccc(Oc3ccc(NC(=O)Nc4cc(C(C)(C)C)nn4C)c(Cl)c3)c2cc1C(N)=O [Compound 44, 4-{4-[3-(5-tert-butyl-2-methyl-2H-pyrazol-3-yl)-ureido]-3-chloro-phenoxy}-7-(2-methoxy-ethoxy)-quinolin-6-carboxamide] | 1.61 nM | 2.21 nM | 11.3 nM | 3.81 nM | 6.49 nM | 1.08 nM | 298 nM | 7.94 nM
CNC(=O)c1cc2c(Oc3ccc(NC(=O)Nc4cc(C(C)(C)C)nn4C)cc3Cl)ccnc2cc1OC [Compound 55, 4-{4-[3-(5-tert-butyl-2-methyl-2H-pyrazol-3-yl)-ureido]-2-chloro-phenoxy}-7-methoxy quinolin-6-carboxylic acid methylamide] | 79.9 nM | 57 nM | 157 nM | 1.16 nM | 83.3 nM | 2.96 nM | 160 nM | 91.8 nM
CNC(=O)c1cc2c(Oc3ccc(NC(=O)Nc4cc(C(C)(C)C)nn4C)c(Cl)c3)ccnc2cc1OCCOC [Compound 59, 4-{4-[3-(5-tert-butyl-2-methyl-2H-pyrazol-3-yl)-ureido]-3-chloro-phenoxy}-7-(2-methoxy-ethoxy)-quinolin-6-carboxylic acid methylamide] | 5.05 nM | 9.62 nM | 19.4 nM | 2.95 nM | 8.17 nM | 0.11 nM | 195 nM | 1.95 nM
COc1cc2nccc(Oc3ccc(NC(=O)Nc4cc(C(C)(C)C)n[nH]4)cc3C)c2cc1NC(C)=O [Compound 103, N-(4-{4-[3-(5-tert-butyl-2H-pyrazol-3-yl)-ureido]-2-methyl-phenoxy}-7-methoxy-quinolin-6-yl)-acetamide] | 24.2 nM | 12.1 nM | 191 nM | 0.15 nM | 86.7 nM | 4.17 nM | 350 nM | 14.6 nM
CCc1cc(NC(=O)Nc2cc(C(C)(C)C)n[nH]2)ccc1Oc1ccnc2cc(OC)c(C(N)=O)cc12 [Compound 106, 4-{4-[3-(5-tert-butyl-2H-pyrazol-3-yl)-ureido]-2-ethyl-phenoxy}-7-methoxy-quinolin-6-carboxamide] | 168 nM | 115 nM | > 1000 nM | 9.37 nM | 120 nM | 46.7 nM | 380 nM | 176 nM
COc1cc2nccc(Oc3ccc(NC(=O)Nc4cc(C(C)(C)C)no4)c(Cl)c3)c2cc1C(N)=O [Compound 13, 4-{4-[3-(3-tert-butyl-isoxazol-5-yl)-ureido]-3-chloro-phenoxy}-7-methoxyquinolin-6-carboxamide] | 0.86 nM | 3.19 nM | 6.61 nM | 5.41 nM | 9.74 nM | 0.84 nM | 252 nM | 5.46 nM
COc1cc2nccc(Nc3ccc(NC(=O)Nc4cc(C(C)(C)C)on4)c(Cl)c3)c2cc1C(N)=O [Compound 77, 4-{4-[3-(5-tert-butyl-isoxazol-3-yl)-ureido]-3-chlorophenylamino}-7-methoxyquinolin-6-carboxamide] | 243 nM | 294 nM | 494 nM | 42.5 nM | 212 nM | 17 nM | > 1000 nM | 518 nM
COc1cc2nccc(Oc3ccc(NC(=O)Nc4cc(C(C)(C)C)n[nH]4)c(Cl)c3)c2cc1C#N [Compound 67, 1-(5-tert-butyl-2H-pyrazol-3-yl)-3-[2-chloro-4-(6-cyano-7-methoxy-quinolin-4-yloxy)-phenyl]-urea] | 164 nM | 19.2 nM | 270 nM | 72.2 nM | 436 nM | 6.83 nM | 863 nM | 24.8 nM
COc1cc(Oc2ccnc3cc(OC)c(C(N)=O)cc23)ccc1NC(=O)Nc1cc(C(C)(C)C)on1 [Compound 5, 4-{4-[3-(5-tert-butyl-isoxazol-3-yl)-ureido]-3-methoxy-phenoxy}-7-methoxyquinolin-6-carboxamide] | 65.3 nM | 2.15 nM | 156 nM | 4.26 nM | 18.8 nM | 9.76 nM | > 1000 nM | 12.9 nM
CCOc1cc2ncc(C#N)c(Oc3ccc(NC(=O)Nc4cc(C(C)(C)C)n[nH]4)c(Cl)c3)c2cc1NC(C)=O [Compound 68, N-(4-{4-[3-(5-tert-butyl-2H-pyrazol-3-yl)-ureido]-3-chloro-phenoxy}-3-cyano-7-ethoxy-quinolin-6-yl) acetamide] | > 1000 nM | > 1000 nM | > 1000 nM | > 1000 nM | > 1000 nM | > 1000 nM | > 1000 nM | > 1000 nM
C=CC(=O)N1CCC(NC(=O)Nc2ccc(Oc3ccnc4cc(OC)c(C(N)=O)cc34)cc2Cl)C1 (stereo not drawn) [Compound 70, 4-{3-chloro-4-[3-(1-acryloylpyrrolidin-3-yl)-ureido]-phenoxy}-7-methoxyquinolin-6-carboxamide] | > 1000 nM | > 1000 nM | > 1000 nM | > 1000 nM | > 1000 nM | > 1000 nM | > 1000 nM | > 1000 nM
COc1cc2nccc(Oc3ccc(NC(=O)Nc4cc(C(C)(C)C)n[nH]4)c(C(F)(F)F)c3)c2cc1C(N)=O [Compound 33, 4-{4-[3-(5-tert-butyl-2H-pyrazol-3-yl)-ureido]-3-trifluoromethyl-phenoxy}-7-methoxyquinolin-6-carboxamide] | 49.8 nM | 25.7 nM | 130 nM | 28.1 nM | 73 nM | 0.71 nM | 632 nM | 46.4 nM
COc1cc2nccc(Oc3ccc(NC(=O)Nc4cc(C(C)(C)C)nn4C4CCCC4)c(Cl)c3)c2cc1C(N)=O [Compound 30, 4-{4-[3-(5-tert-butyl-2-cyclopentyl-2H-pyrazol-3-yl)-ureido]-3-chloro-phenoxy}-7-methoxyquinolin-6-carboxamide] | 15.5 nM | 22 nM | 26.1 nM | 17.8 nM | 16.7 nM | 1.62 nM | 276 nM | 23.7 nM
CN1CCN(CCCOc2cc3nccc(Oc4ccc(NC(=O)Nc5cc(C(C)(C)C)n[nH]5)c(Cl)c4)c3cc2C(N)=O)CC1 [Compound 82, 4-{4-[3-(5-tert-butyl-2H-pyrazol-3-yl)-ureido]-3-chloro-phenoxy}-7-[3-(4-methyl-piperazin-1-yl)-propoxy]-quinolin-6-carboxamide] | 3.61 nM | 20.6 nM | 23.9 nM | 1.7 nM | 9.43 nM | 2.94 nM | 174 nM | 5.21 nM
CNC(=O)c1cc2c(Oc3ccc(NC(=O)Nc4cc(C(C)(C)C)no4)c(Cl)c3)ccnc2cc1OC [Compound 15, 4-{4-[3-(3-tert-butyl-isoxazol-5-yl)-ureido]-3-chloro-phenoxy}-7-methoxyquinolin-6-carboxylic acid methylamide] | 1.06 nM | 4.09 nM | 24.1 nM | 5.25 nM | 12.9 nM | 1.34 nM | 516 nM | 5.43 nM
COc1cc2nccc(Oc3ccc(NC(=O)Nc4cc(C(C)(C)C)on4)c(Br)c3)c2cc1C(N)=O [Compound 3, 4-{3-bromo-4-[3-(5-tert-butyl-isoxazol-3-yl)-ureido]-phenoxy}-7-methoxyquinolin-6-carboxamide] | 6.87 nM | 14 nM | 27.4 nM | 35.4 nM | 16.6 nM | 1.46 nM | 725 nM | 27.8 nM
CCC(=O)n1nc(C(C)(C)C)cc1NC(=O)Nc1ccc(Oc2ccnc3cc(OC)c(C(N)=O)cc23)cc1Cl [Compound 29, 4-{4-[3-(5-tert-butyl-2-propanoyl-2H-pyrazol-3-yl)-ureido]-3-chloro-phenoxy}-7-methoxyquinolin-6-carboxamide] | 26.3 nM | 29.4 nM | 29.4 nM | 11.5 nM | 18 nM | 1.48 nM | 626 nM | 66.8 nM
COc1cc2nccc(Oc3ccc(NC(=O)Nc4cc(C(C)C)n[nH]4)c(Cl)c3)c2cc1C(N)=O [Compound 40, 4-{3-chloro-4-[3-(5-isopropyl-2H-pyrazol-3-yl)-ureido]-phenoxy}-7-methoxyquinolin-6-carboxamide] | 127 nM | 112 nM | 446 nM | 19.6 nM | 93 nM | 2.53 nM | 721 nM | 106 nM
